In PubChem BioAssay (NCI):
Values joined by “and” are separate entries in the source; they are usually repeats but may differ in a detail not shown here. Equal entries are not always repeated.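 Results reflect a 48-hour exposure of cells in 96-well plates to compound at five concentrations. GI50 marks 50% less growth. TGI is the concentration that stops growth completely.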

Assays:
Assay in all cases: DTP human tumour cell line panel, 48 h
786-0 renal = system: 786-0 renal
NCI-H460 lung = system: NCI-H460 lung
OVCAR-5 ovarian = system: OVCAR-5 ovarian
RPMI-8226 leukemia = system: RPMI-8226 leukemia
SF-268 CNS = system: SF-268 CNS
SF-539 CNS = system: SF-539 CNS
SW-620 colon = system: SW-620 colon
UO-31 renal = system: UO-31 renal
HCT-116 colon = system: HCT-116 colon
SR leukemia = system: SR leukemia

Cc1nc(-n2nc(-c3ccccc3)cc2-c2ccccc2)sc1C(=O)/C=C/c1ccccc1
TGI (786-0 renal): > 100 µM
TGI (NCI-H460 lung): > 100 µM
TGI (OVCAR-5 ovarian): > 100 µM
TGI (RPMI-8226 leukemia): > 100 µM
TGI (SF-268 CNS): > 100 µM
TGI (SF-539 CNS): > 100 µM
TGI (SW-620 colon): > 100 µM
TGI (UO-31 renal): > 100 µM

O=c1cccccc1[O-].O=c1cccccc1[O-].O=c1cccccc1[O-].[Sm+3]
TGI (786-0 renal): > 100 µM
TGI (HCT-116 colon): 94.5 µM
TGI (NCI-H460 lung): > 100 µM
TGI (OVCAR-5 ovarian): > 100 µM
TGI (RPMI-8226 leukemia): > 100 µM
GI50 (SF-539 CNS): 29.1 µM
TGI (SF-539 CNS): > 100 µM
TGI (SW-620 colon): > 100 µM
TGI (UO-31 renal): > 100 µM

Nc1ccc(C(=O)/C=C/c2ccccc2O)cc1
TGI (786-0 renal): > 100 µM
TGI (HCT-116 colon): > 100 µM
TGI (NCI-H460 lung): > 100 µM
TGI (OVCAR-5 ovarian): > 100 µM
TGI (SF-268 CNS): > 100 µM
TGI (SF-539 CNS): > 100 µM
TGI (SR leukemia): > 100 µM
TGI (SW-620 colon): > 100 µM
TGI (UO-31 renal): > 100 µM

c1cncc(C2ONC3=NCCN32)c1 (centres undefined)
GI50 (786-0 renal): 6.22 µM
TGI (786-0 renal): 39.2 µM
GI50 (HCT-116 colon): 34.6 µM
TGI (HCT-116 colon): > 100 µM
GI50 (NCI-H460 lung): 31 µM
TGI (NCI-H460 lung): > 100 µM
GI50 (OVCAR-5 ovarian): 58.3 µM
TGI (OVCAR-5 ovarian): > 100 µM
GI50 (SF-268 CNS): 21.7 µM
TGI (SF-268 CNS): > 100 µM
GI50 (SF-539 CNS): 28.9 µM
TGI (SF-539 CNS): > 100 µM
GI50 (SW-620 colon): 35.5 µM
TGI (SW-620 colon): > 100 µM
GI50 (UO-31 renal): 2.27 µM
TGI (UO-31 renal): > 100 µM

O=C(c1ccccc1)C(Br)C(Br)c1ccccc1 (centres undefined)
GI50 (786-0 renal): 15.2 µM
TGI (786-0 renal): 28.7 µM
GI50 (HCT-116 colon): 1.73 µM
TGI (HCT-116 colon): 3.32 µM
GI50 (NCI-H460 lung): 13.8 µM
TGI (NCI-H460 lung): 29.5 µM
GI50 (OVCAR-5 ovarian): 14.5 µM
TGI (OVCAR-5 ovarian): 27.7 µM
GI50 (RPMI-8226 leukemia): 3.44 µM
TGI (RPMI-8226 leukemia): 8.11 µM
GI50 (SF-268 CNS): 9.37 µM
TGI (SF-268 CNS): 24.8 µM
GI50 (SF-539 CNS): 10.7 µM
TGI (SF-539 CNS): 22.6 µM
GI50 (SW-620 colon): 1.69 µM
TGI (SW-620 colon): 3.28 µM
GI50 (UO-31 renal): 1.85 µM
TGI (UO-31 renal): 3.87 µM

Clc1ccc2c(NCCCN3CCN(c4nc(N5CCOCC5)nc5ccccc45)CC3)ccnc2c1
GI50 (786-0 renal): 1.59 µM
TGI (786-0 renal): 3.03 µM
GI50 (HCT-116 colon): 1.25 µM
TGI (HCT-116 colon): 2.59 µM
GI50 (NCI-H460 lung): 1.91 µM
TGI (NCI-H460 lung): 3.84 µM
GI50 (OVCAR-5 ovarian): 2.5 µM
TGI (OVCAR-5 ovarian): 6.34 µM
GI50 (RPMI-8226 leukemia): 1.15 µM
TGI (RPMI-8226 leukemia): 3.46 µM
GI50 (SF-268 CNS): 2.21 µM
TGI (SF-268 CNS): 5.51 µM
GI50 (SF-539 CNS): 1.68 µM
TGI (SF-539 CNS): 3.14 µM
GI50 (SR leukemia): 1.35 µM
TGI (SR leukemia): 4.57 µM
GI50 (SW-620 colon): 1.62 µM
TGI (SW-620 colon): 3.5 µM

O=C1CCS/C(=N/S(=O)(=O)c2ccc(N3N=C4c5ccccc5CC4C3c3cccs3)cc2)N1Cc1ccccc1 (centres undefined)
GI50 (786-0 renal): 17.1 µM
TGI (786-0 renal): 32.4 µM
GI50 (HCT-116 colon): 20.3 µM
TGI (HCT-116 colon): 34.5 µM
GI50 (NCI-H460 lung): > 100 µM
TGI (NCI-H460 lung): > 100 µM
GI50 (OVCAR-5 ovarian): 22.4 µM
TGI (OVCAR-5 ovarian): 44.9 µM
GI50 (RPMI-8226 leukemia): 18.1 µM
TGI (RPMI-8226 leukemia): > 100 µM
GI50 (SF-268 CNS): > 100 µM
TGI (SF-268 CNS): > 100 µM
GI50 (SF-539 CNS): 21.8 µM
TGI (SF-539 CNS): 44.4 µM
GI50 (SW-620 colon): 24 µM
TGI (SW-620 colon): 84.6 µM
GI50 (UO-31 renal): 28.3 µM
TGI (UO-31 renal): > 100 µM

O=C(C(=O)c1cc(Br)ccc1O)c1cc(Br)ccc1O
GI50 (786-0 renal): 3.87 µM
TGI (786-0 renal): 13.7 µM
GI50 (HCT-116 colon): 3.38 µM
TGI (HCT-116 colon): 12.7 µM
GI50 (OVCAR-5 ovarian): 22.2 µM
TGI (OVCAR-5 ovarian): 74.8 µM
GI50 (RPMI-8226 leukemia): 2.71 µM
TGI (RPMI-8226 leukemia): 88.2 µM
GI50 (SF-268 CNS): 3.41 µM
TGI (SF-268 CNS): 21.1 µM
GI50 (SF-539 CNS): 4.01 µM
TGI (SF-539 CNS): 18.6 µM
GI50 (SR leukemia): 3.15 µM
TGI (SR leukemia): 53.2 µM
GI50 (UO-31 renal): 1.97 µM
TGI (UO-31 renal): 6.51 µM

c1ccc2c3c([nH]c2c1)C1C2CCCCN2C(c2ccncc2)N1CC3 (centres undefined)
TGI (786-0 renal): > 100 µM
TGI (HCT-116 colon): > 100 µM
TGI (NCI-H460 lung): > 100 µM
TGI (OVCAR-5 ovarian): > 100 µM
TGI (RPMI-8226 leukemia): 87.3 µM
TGI (SF-539 CNS): > 100 µM
TGI (SR leukemia): > 100 µM
TGI (SW-620 colon): > 100 µM
TGI (UO-31 renal): 34.8 µM

O=C(CC1=Nc2nnc(-c3nnc4n3C(=O)C(CC(=O)C3CC3)=N4)n2C1=O)C1CC1
TGI (786-0 renal): > 100 µM
TGI (HCT-116 colon): > 100 µM
TGI (NCI-H460 lung): > 100 µM
TGI (OVCAR-5 ovarian): > 100 µM
TGI (RPMI-8226 leukemia): > 100 µM
TGI (SF-268 CNS): > 100 µM
TGI (SF-539 CNS): > 100 µM
TGI (SW-620 colon): > 100 µM
TGI (UO-31 renal): > 100 µM

NC(=O)c1ncn(C2OC(CO)C(O)C2O)c1N (centres undefined)
GI50 (786-0 renal): > 100 µM
TGI (786-0 renal): > 100 µM
GI50 (HCT-116 colon): > 100 µM
TGI (HCT-116 colon): > 100 µM
GI50 (NCI-H460 lung): > 100 µM
TGI (NCI-H460 lung): > 100 µM
GI50 (OVCAR-5 ovarian): > 100 µM
TGI (OVCAR-5 ovarian): > 100 µM
GI50 (RPMI-8226 leukemia): > 100 µM
TGI (RPMI-8226 leukemia): > 100 µM
GI50 (SF-268 CNS): > 100 µM
TGI (SF-268 CNS): > 100 µM
GI50 (SF-539 CNS): > 100 µM
TGI (SF-539 CNS): > 100 µM
GI50 (SW-620 colon): > 100 µM
TGI (SW-620 colon): > 100 µM
GI50 (UO-31 renal): > 100 µM
TGI (UO-31 renal): > 100 µM

C=C(Cl)[C@@](Cl)(CBr)CC[C@@H](Br)C(C)(C)Cl
GI50 (786-0 renal): 0.0733 µM
TGI (786-0 renal): 0.286 µM and 0.247 µM
TGI (HCT-116 colon): 1.25 µM and 0.635 µM
GI50 (OVCAR-5 ovarian): 2.45 µM
TGI (OVCAR-5 ovarian): 7.39 µM and 3.22 µM
GI50 (RPMI-8226 leukemia): 0.0688 µM
TGI (RPMI-8226 leukemia): 1.48 µM and 0.473 µM
TGI (SF-268 CNS): 3.01 µM and 0.838 µM
GI50 (SF-539 CNS): 0.0282 µM
TGI (SF-539 CNS): 0.325 µM
GI50 (SR leukemia): 23.1 µM
TGI (SR leukemia): > 100 µM and 79.4 µM
GI50 (SW-620 colon): 0.778 µM
GI50 (UO-31 renal): 0.428 µM
TGI (UO-31 renal): 1.85 µM and 2.01 µM

CCCCCCCCCCCCCCC(C)CCC(=O)O (centres undefined)
TGI (786-0 renal): > 100 µM
TGI (HCT-116 colon): > 100 µM
TGI (NCI-H460 lung): > 100 µM
TGI (OVCAR-5 ovarian): > 100 µM
TGI (SF-268 CNS): > 100 µM
TGI (SF-539 CNS): > 100 µM
TGI (SW-620 colon): > 100 µM

C=CCN=C(N/N=C/c1ccc([N+](=O)[O-])o1)NS(=O)(=O)c1cc(C(=O)Nc2ccccc2)c(Cl)cc1SCC(N)=O
GI50 (786-0 renal): 63.7 µM
TGI (786-0 renal): > 100 µM
GI50 (HCT-116 colon): 20.2 µM
TGI (HCT-116 colon): 49 µM
GI50 (NCI-H460 lung): 69.4 µM
TGI (NCI-H460 lung): > 100 µM
GI50 (OVCAR-5 ovarian): > 100 µM
TGI (OVCAR-5 ovarian): > 100 µM
GI50 (RPMI-8226 leukemia): 20.4 µM
TGI (RPMI-8226 leukemia): 55.1 µM
GI50 (SF-268 CNS): 29 µM
TGI (SF-268 CNS): > 100 µM
GI50 (SF-539 CNS): 18.8 µM
TGI (SF-539 CNS): 41.5 µM
GI50 (SW-620 colon): 5.99 µM
TGI (SW-620 colon): 37.4 µM
GI50 (UO-31 renal): > 100 µM
TGI (UO-31 renal): > 100 µM

N/C(=N\C(N)=N\c1nc2ccccc2s1)c1cnccn1
GI50 (786-0 renal): 2.97 µM
TGI (786-0 renal): > 100 µM
GI50 (NCI-H460 lung): 3.59 µM
TGI (NCI-H460 lung): > 100 µM
GI50 (OVCAR-5 ovarian): 3.68 µM
TGI (OVCAR-5 ovarian): > 100 µM
GI50 (RPMI-8226 leukemia): 3.2 µM
TGI (RPMI-8226 leukemia): > 100 µM
GI50 (SF-268 CNS): 4.74 µM
TGI (SF-268 CNS): > 100 µM
GI50 (SF-539 CNS): 2.07 µM
TGI (SF-539 CNS): 4.12 µM
GI50 (SR leukemia): 4.32 µM
TGI (SR leukemia): > 100 µM
GI50 (SW-620 colon): 3.68 µM
TGI (SW-620 colon): > 100 µM
GI50 (UO-31 renal): 2.05 µM
TGI (UO-31 renal): 4.87 µM

N#CC(NC(=O)CCl)=C(Cl)Cl
GI50 (786-0 renal): 2.13 µM
TGI (786-0 renal): 5.87 µM
GI50 (HCT-116 colon): 1.02 µM
TGI (HCT-116 colon): 3.7 µM
GI50 (NCI-H460 lung): 2.69 µM
TGI (NCI-H460 lung): 7.47 µM
GI50 (OVCAR-5 ovarian): 1.96 µM
TGI (OVCAR-5 ovarian): 3.47 µM
GI50 (SF-268 CNS): 1.97 µM
TGI (SF-268 CNS): 4.66 µM
GI50 (SF-539 CNS): 1.84 µM
TGI (SF-539 CNS): 3.53 µM
GI50 (SR leukemia): 0.702 µM
TGI (SR leukemia): 2.68 µM
GI50 (SW-620 colon): 1.44 µM
TGI (SW-620 colon): 3.49 µM
GI50 (UO-31 renal): 1.25 µM
TGI (UO-31 renal): 2.56 µM
